PubChem BioAssay AID248 (DTP/NCI, 2004)
Values joined by “and” are separate entries in the source; they are usually repeats but may differ in a detail not shown here. Equal values may be shown once. Toxic doses and inconclusive results are not listed. Cut-off read from the data, not from the text of the source: active = T/C of 150% or more; inactive = T/C below 125%.

Test system: L1210 leukemia ip in BDF1 mice, survival T/C
Assay: NCI In Vivo Anticancer Drug Screen. Data for tumor model L1210 Leukemia (intraperitoneal) in B6D2F1 (BDF1) mice
Conditions: endpoint: mean survival time, higher = longer survival
Summary of the method: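 Tumor was transplanted into mice, which were then dosed with test compound or vehicle alone. Survival was recorded for each group, and the treated figure was expressed relative to the control figure.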

[1] = dose: 100.0 mg/kg/injection, schedule: Q01DX009 (ip), vehicle: Klucel (hydroxypropylcellulose) (HPC)
[2] = dose: 100.0 mg/kg/injection, schedule: Q04DX003 (ip), vehicle: Klucel (hydroxypropylcellulose) (HPC)
[3] = dose: 200.0 mg/kg/injection, schedule: Q04DX003 (ip), vehicle: Klucel (hydroxypropylcellulose) (HPC)
[4] = dose: 400.0 mg/kg/injection, schedule: Q04DX003 (ip), vehicle: Klucel (hydroxypropylcellulose) (HPC)
[5] = dose: 100.0 mg/kg/injection, schedule: Q01DX009 (ip), vehicle: saline with Tween-80
[6] = dose: 200.0 mg/kg/injection, schedule: Q01DX009 (ip), vehicle: saline with Tween-80
[7] = dose: 100.0 mg/kg/injection, schedule: Q01DX009 (ip), vehicle: saline
[8] = dose: 100.0 mg/kg/injection, schedule: Q04DX003 (ip), vehicle: saline
[9] = dose: 200.0 mg/kg/injection, schedule: Q01DX009 (ip), vehicle: saline
[10] = dose: 200.0 mg/kg/injection, schedule: Q04DX003 (ip), vehicle: saline
[11] = dose: 400.0 mg/kg/injection, schedule: Q01DX009 (ip), vehicle: saline
[12] = dose: 400.0 mg/kg/injection, schedule: Q04DX003 (ip), vehicle: saline
[13] = dose: 100.0 mg/kg/injection, schedule: Q01DX001 (ip), vehicle: saline
[14] = dose: 200.0 mg/kg/injection, schedule: Q01DX001 (ip), vehicle: saline
[15] = dose: 400.0 mg/kg/injection, schedule: Q01DX001 (ip), vehicle: saline
[16] = dose: 100.0 mg/kg/injection, schedule: Q01DX001 (ip), vehicle: carboxymethylcellulose (CMC)
[17] = dose: 200.0 mg/kg/injection, schedule: Q01DX001 (ip), vehicle: carboxymethylcellulose (CMC)
[18] = dose: 400.0 mg/kg/injection, schedule: Q01DX001 (ip), vehicle: carboxymethylcellulose (CMC)

Measured: T/C

O=c1c2ccccc2ccc2ccccc12
inactive: dose: 100.0 mg/kg/injection, schedule: Q01DX001 (ip), vehicle: Klucel (hydroxypropylcellulose) (HPC) 103 % of control | [1] 97 % of control | [2] 100 % of control | dose: 200.0 mg/kg/injection, schedule: Q01DX001 (ip), vehicle: Klucel (hydroxypropylcellulose) (HPC) 93 % of control | dose: 200.0 mg/kg/injection, schedule: Q01DX009 (ip), vehicle: Klucel (hydroxypropylcellulose) (HPC) 102 % of control | [3] 103 % of control | dose: 400.0 mg/kg/injection, schedule: Q01DX001 (ip), vehicle: Klucel (hydroxypropylcellulose) (HPC) 103 % of control | dose: 400.0 mg/kg/injection, schedule: Q01DX009 (ip), vehicle: Klucel (hydroxypropylcellulose) (HPC) 100 % of control | [4] 105 % of control

CCCCc1ccc(N=Cc2ccc(C=Nc3ccc(CCCC)cc3)cc2)cc1
inactive: [5] 92 % of control | [6] 97 % of control | dose: 400.0 mg/kg/injection, schedule: Q01DX009 (ip), vehicle: saline with Tween-80 94 % of control

COC(=O)C(N)CCl (configuration not stated)
inactive: dose: 100.0 mg/kg/injection, schedule: Q01DX001 (ip), vehicle: steriod suspending solution 101 % of control | [7] 93 % of control | [8] 106 % of control | dose: 200.0 mg/kg/injection, schedule: Q01DX001 (ip), vehicle: steriod suspending solution 95 % of control | [9] 100 % of control | [10] 102 % of control | dose: 400.0 mg/kg/injection, schedule: Q01DX001 (ip), vehicle: steriod suspending solution 106 % of control | [11] 101 % of control | [12] 104 % of control

CCOC(=O)c1ccc(N2C(=O)CC(Sc3ccccc3N)C2=O)cc1 (configuration not stated)
inactive: dose: 100.0 mg/kg/injection, schedule: Q01DX005 (ip), vehicle: Klucel (hydroxypropylcellulose) (HPC) 97 % of control | dose: 100.0 mg/kg/injection, schedule: Q04DX002 (ip), vehicle: Klucel (hydroxypropylcellulose) (HPC) 103 % of control | dose: 200.0 mg/kg/injection, schedule: Q01DX005 (ip), vehicle: Klucel (hydroxypropylcellulose) (HPC) 102 % of control | dose: 200.0 mg/kg/injection, schedule: Q04DX002 (ip), vehicle: Klucel (hydroxypropylcellulose) (HPC) 103 % of control | dose: 400.0 mg/kg/injection, schedule: Q01DX005 (ip), vehicle: Klucel (hydroxypropylcellulose) (HPC) 91 % of control | dose: 400.0 mg/kg/injection, schedule: Q04DX002 (ip), vehicle: Klucel (hydroxypropylcellulose) (HPC) 113 % of control

CCOC(=O)Nc1ccc(OC(=O)Oc2ccc(NC(=O)OCC)cc2)cc1
inactive: [13] 97 % of control | [14] 97 % of control | [15] 86 % of control

COc1cccc(C=Nc2ccc(I)cc2)c1O.COc1cccc(C=Nc2ccc(I)cc2)c1O.[Co]
inactive: [8] 94 % of control | [10] 94 % of control | [12] 109 % of control

CCOP(=O)(OCC)C([O][Sb]([O]CC(C)Cl)[O]CC(C)Cl)c1ccc(OC)cc1 (configuration not stated)
inactive: dose: 25.0 mg/kg/injection, schedule: Q04DX003 (ip), vehicle: alcohol 101 % of control | dose: 50.0 mg/kg/injection, schedule: Q04DX003 (ip), vehicle: alcohol 97 % of control | dose: 100.0 mg/kg/injection, schedule: Q04DX003 (ip), vehicle: alcohol 103 % of control and 113 % of control

C[C@H](CCC(=O)O)[C@H]1CC[C@H]2[C@@H]3CCC4=C(O)C(=O)CC[C@]4(C)[C@H]3CC(=O)[C@]12C
inactive: dose: 100.0 mg/kg/injection, schedule: Q01DX001 (sc), vehicle: steriod suspending solution 101 % of control | dose: 200.0 mg/kg/injection, schedule: Q01DX001 (sc), vehicle: steriod suspending solution 98 % of control | dose: 400.0 mg/kg/injection, schedule: Q01DX001 (sc), vehicle: steriod suspending solution 103 % of control

CC1=CCC(=O)O1
inactive: dose: 50.0 mg/kg/injection, schedule: Q01DX001 (ip), vehicle: saline 100 % of control | dose: 50.0 mg/kg/injection, schedule: Q01DX009 (ip), vehicle: saline with Tween-80 94 % of control | [13] 100 % of control | [5] 97 % of control | [14] 97 % of control | [6] 94 % of control | [15] 97 % of control

O=C(O)c1c(Cl)c([N+](=O)[O-])cc([N+](=O)[O-])c1Cl
inactive: dose: 50.0 mg/kg/injection, schedule: Q01DX009 (ip), vehicle: saline 92 % of control | [7] 92 % of control | [8] 103 % of control | [9] 92 % of control | [10] 99 % of control

Cc1nc(N)c([N+](=O)[O-])cc1[N+](=O)[O-]
inactive: dose: 100.0 mg/kg/injection, schedule: Q01DX009 (ip), vehicle: acetone 100 % of control

COc1ccc(N(C=O)N=O)cc1
inactive: dose: 75.0 mg/kg/injection, schedule: Q01DX001 (ip), vehicle: other 90 % of control | dose: 150.0 mg/kg/injection, schedule: Q01DX001 (ip), vehicle: other 93 % of control

COc1ccc(C(=O)OC(c2ccccc2)c2ccccc2)cc1
inactive: [13] 98 % of control | [14] 100 % of control | [15] 89 % of control

CCCCCCC(C)C1CCCCC1 (configuration not stated)
inactive: dose: 100.0 mg/kg/injection, schedule: Q01DX001 (ip), vehicle: saline with Tween-80 96 % of control | dose: 200.0 mg/kg/injection, schedule: Q01DX001 (ip), vehicle: saline with Tween-80 93 % of control | dose: 400.0 mg/kg/injection, schedule: Q01DX001 (ip), vehicle: saline with Tween-80 93 % of control

O=[N+]([O-])c1cccc(S(=O)(=O)NNc2ccc(Br)cc2)c1
inactive: [2] 96 % of control | [3] 93 % of control | [4] 89 % of control

O=c1[nH]cnc2c1ncn2C1OC(CF)C(O)C1O (configuration not stated)
inactive: [7] 101 % of control | dose: 100.0 mg/kg/injection, schedule: Q04DX003 (ip), vehicle: other 112 % of control | [9] 101 % of control | dose: 200.0 mg/kg/injection, schedule: Q04DX003 (ip), vehicle: other 103 % of control | [11] 101 % of control | dose: 400.0 mg/kg/injection, schedule: Q04DX003 (ip), vehicle: other 98 % of control

CCCCC(=O)N/N=C\c1cccc(I)c1
inactive: [16] 87 % of control | [17] 93 % of control | [18] 87 % of control

CCNC(C)(C)C(SS(=O)(=O)O)c1cccs1 (configuration not stated)
inactive: dose: 100.0 mg/kg/injection, schedule: Q04DX003 (ip), vehicle: water 109 % of control | dose: 200.0 mg/kg/injection, schedule: Q04DX003 (ip), vehicle: water 96 % of control | dose: 400.0 mg/kg/injection, schedule: Q04DX003 (ip), vehicle: water 94 % of control

Cc1cc(Cc2cc(C)c(N)cc2N)c(N)cc1N
inactive: [13] 88 % of control | [14] 93 % of control | [15] 90 % of control

CCCCCCCCCCCCCCCCSC(=N)N
inactive: dose: 100.0 mg/kg/injection, schedule: Q04DX003 (ip), vehicle: carboxymethylcellulose (CMC) 91 % of control | dose: 200.0 mg/kg/injection, schedule: Q04DX003 (ip), vehicle: carboxymethylcellulose (CMC) 93 % of control

CC1(C)C(OC=O)C(C)(C)C1OC=O (configuration not stated)
inactive: dose: 25.0 mg/kg/injection, schedule: Q01DX009 (ip), vehicle: Klucel (hydroxypropylcellulose) (HPC) 100 % of control | dose: 50.0 mg/kg/injection, schedule: Q01DX009 (ip), vehicle: Klucel (hydroxypropylcellulose) (HPC) 93 % of control | [1] 94 % of control | [2] 96 % of control | [3] 98 % of control

COC(=O)C1C=C2c3cccc4[nH]cc(c34)CC2N(C)C1 (configuration not stated)
inactive: [7] 105 % of control

COCC1OC(n2cnc3c(N(C)C)ncnc32)C(OC)C1OC (configuration not stated)
inactive: dose: 50.0 mg/kg/injection, schedule: Q01DX005 (ip), vehicle: saline 112 % of control | dose: 100.0 mg/kg/injection, schedule: Q01DX005 (ip), vehicle: saline 102 % of control | dose: 200.0 mg/kg/injection, schedule: Q01DX005 (ip), vehicle: saline 96 % of control

CC1([N+](=O)[O-])COP(=O)(OP2(=O)OCC(C)([N+](=O)[O-])CO2)OC1 (configuration not stated)
inactive: [16] 108 % of control | [17] 101 % of control | [18] 103 % of control
